Measurements taken from patent publication US8920559B2, “Screening for solid forms by ultrasound crystallization and cocrystallization using ultrasound” (Aptuit (West Lafayette), LLC, priority 2004, dated 2014).

Experiments:
[1] = White, Amber and Yellow polymorphic forms of WAY; literature (Yeadon 1985; Xiaorong He 2000); cited from earlier work
[2] = cocrystal compared with crystals of fluoxetine HCl
[3] = Form I vs Form II, room temperature; Zhang et al. 2002; cited from earlier work

| SMILES | relative stability of the three forms [1] | also measured |
| --- | --- | --- |
| CC(=O)Nc1ccc(C)cc1[N+](=O)[O-] [amber form, 4-methyl-2-nitroacetanilide] | least stable |  |
| CNCCC(Oc1ccc(C(F)(F)F)cc1)c1ccccc1.Cl.O=C(O)c1ccccc1 (centres unmarked) [fluoxetine HCl:benzoic acid] |  | dissolution rate [2]: lower dissolution rate |
| Cc1ccnc(NS(=O)(=O)c2ccc(N)cc2)n1 [sulfamerazine Form II, Sulfamerazine] |  | relative stability of polymorphic forms [3]: most stable form at room temperature |
| CC(=O)Nc1ccc(C)cc1[N+](=O)[O-] [white form, 4-methyl-2-nitroacetanilide] | most stable form |  |
| CC(=O)Nc1ccc(C)cc1[N+](=O)[O-] [yellow form, 4-methyl-2-nitroacetanilide] | more stable than the amber form |  |
